Measured values reported in US20260199500A1, “Camptothecin Derivative, Conjugate Thereof, Preparation Method Therefor and Medical Use Thereof” (priority 2023, published 2026).

What was measured:
N87 gastric cancer cells = assay: Inhibitory activity of compounds on N87 gastric cancer cells (CellTiter-Glo, 144 h); format: cell-based; details: IC50 of PY-X (DXD) set to 1; values are ratios of measured IC50 to DXD; 144 h
Protocol: (§1) On the day of the experiment, the cells were digested with 0.25% trypsin (Gibco, 25200-072), filtered through a 40 μm sieve, diluted with the corresponding medium to a cell density of 1×10^4 cells/mL, and inoculated into a 96-well white cell culture plate (Beyotime, FCP968), with 100 μL of cells added per well. The culture plate was placed in a 37° C. incubator (Thermo 311) containing 5% C02 and incubated for 24 hours. On the second day, the samples to be tested were prepared as a stock solution at a final concentration of 1M in DMSO (Sigma, D1650), then diluted with the corresponding medium to a final concentration of 200 nM, and subjected to four-fold serial dilutions, resulting in a total of 9 concentrations. 100 μL of the diluted sample was added to each well of the 96-well plate. The plate was placed in a 37° C. incubator containing 5% CO2 and incubated for 144 hours. The cell culture plate was then removed, and 100 μL of the cell viability assay reagent (CellTiter-Glo® Luminescent Cell Viability Assay, Promega, G7571) was added to each well. The reaction was carried out in the dark at room temperature for 5 minutes. Luminescence values were read using a microplate reader (TECAN SPARK), and data were processed using Graphpad Prism 7 software.
(§2) PY—Y is referenced in the document (WO2022170971A1); and PY-A is referenced in the document (WO2021148501A1).

[1] = tested on: MDA-MB-468 breast cancer cells; assay: Inhibitory activity of compounds on MDA-MB-468 breast cancer cells (CellTiter-Glo); format: cell-based; details: IC50 of PY-X (DXD) set to 1; values are ratios of measured IC50 to DXD
Protocol: as §1, §2

[2] = tested on: SW1990 (Pancreatic) cells; assay: Inhibition of SW1990 cells by compounds; format: cell-based; details: PY-X (DXD) set to 1
Protocol: as §1

Colo-205 (Colon) cells = assay: Inhibition of Colo-205 cells by compounds; format: cell-based; details: PY-X (DXD) set to 1
Protocol: as §1

SW1573 (NSCLC) cells = assay: Inhibition of SW1573 cells by compounds; format: cell-based; details: PY-X (DXD) set to 1
Protocol: as §1

A549 (NSCLC) cells = assay: Inhibition of A549 cells by compounds; format: cell-based; details: PY-X (DXD) set to 1
Protocol: as §1

[3] = tested on: PANC-1 (Pancreatic) cells; assay: Inhibition of PANC-1 cells by compounds; format: cell-based; details: PY-X (DXD) set to 1
Protocol: as §1

H1437 (NSCLC) cells = assay: Inhibition of H1437 cells by compounds; format: cell-based; details: PY-X (DXD) set to 1
Protocol: as §1

H1650 (NSCLC) cells = assay: Inhibition of H1650 cells by compounds; format: cell-based; details: PY-X (DXD) set to 1
Protocol: as §1

H82 (SCLC) cells = assay: Inhibition of H82 cells by compounds; format: cell-based; details: PY-X (DXD) set to 1
Protocol: as §1

HT-29 (Colon) cells = assay: Inhibition of HT-29 cells by compounds; format: cell-based; details: PY-X (DXD) set to 1
Protocol: as §1

[4] = Log D of small molecules (1-octanol / phosphate buffer pH 2.5 and pH 7.4, LC-MS/MS); format: physicochemical
Protocol: (1) Preparation of 100 mM phosphate buffer (PB) solution at pH 2.5 and pH 7.4 respectively: • a. Preparation of a solution of 100 mM H3PO4 in water: 14.7 M H3PO4 was diluted with water to a concentration of 100 mM H3PO4, and the pH was measured to be approximately 1.8. • b. Preparation of 100 mM NaH2PO4: 5.999 g of NaH2PO4 was dissolved in 500 mL of water and the pH was measured to be approximately 4.5. • c. Preparation of 100 mM Na2HPO4: 7.098 g of Na2HPO4 was dissolved in water to a volume of 500 mL and the pH was measured to be approximately 9.4. • d. Preparation of 100 mM PB (pH 2.5): 15 mL of 100 mM H3PO4 was added to a 50 mL tube, and then pH was adjusted to 2.5±0.05 with 100 mM NaH2PO4. • d. Preparation of 100 mM PB (pH 7.4): 15 mL of 100 mM Na2HPO4 was added to a 50 mL tube, and then pH was adjusted to 7.4±0.05 with 100 mM NaH2PO4.
(2) Saturation of PBs (pH 2.5 and pH 7.4) with 1-octanol: 10 mL of 1-octanol was added to 100 mL of 100 mM PBs (pH 2.5 and pH 7.4), and the mixture was shaken vigorously, and then allowed to stand overnight at room temperature for later use.
(3) Saturation of 1-octanol with PBs (pH 2.5 and pH 7.4): 10 mL of 100 mM PBs (pH 2.5 and pH 7.4) was added to 100 mL of 1-octanol, and the mixture was shaken vigorously, and then allowed to stand overnight at room temperature for later use.
2.1) 2 μL of 10 mM DMSO stock solution of the test compound were dispensed into test tubes, in duplicate.
2.2) 149 μL of PB saturated with 1-octanol (pH 2.5 and 7.4) were added to the tubes.
2.3) 149 μL of PB (pH 2.5 and 7.4) saturated with 1-octanol were added to the corresponding tubes.
2.4) Each tube was vigorously mixed for 2 minutes, then shaken at 800 rpm for 1 hour at room temperature.
2.5) The tubes were centrifuged at 4000 rpm for 5 minutes at room temperature.
2.6) Appropriate volumes of the buffer phase and 1-octanol phase samples were aliquoted.
2.7) These samples were diluted and analyzed using LC-MS/MS without running a calibration curve.
2.8) Data analysis: The log D value of each compound was calculated using the following formula: f

Compound	IC50 on N87 cells, ratio to DXD (N87 gastric cancer cells)	IC50 on 468 cells, ratio to DXD [1]	further results
CC[C@@]1(O)C(=O)OCc2c1cc1n(c2=O)Cc2c-1nc1cc(F)c(COC(=O)NCCO)c3c1c2CCC3 [PY-27(10Car), (S)-(9-ethyl-5-fluoro-9-hydroxy-10,13-dioxy-2,3,9,10,13,15-hexahydro-1H,12H-benzo[d]pyrano[3′,4′:6,7]indolizino[1,2-b]quinolin-4-yl)methyl(2-hydroxyethyl)carbamate]	3.3500	3.7610	–
CC[C@@]1(O)C(=O)OCc2c1cc1n(c2=O)Cc2c-1nc1cc(F)c(CCCCN)c3c1c2CCC3 [PY-24]	1.5288	2.2057	–
CC[C@@]1(O)C(=O)OCc2c1cc1n(c2=O)Cc2c-1nc1cc(F)c(CCN)c3c1c2CCC3 [PY-20]	1.0070	1.2806	–
CC[C@@]1(O)C(=O)OCc2c1cc1n(c2=O)Cc2c-1nc1cc(Cl)c(CN)c3c1c2CCC3 [PY-36, (S)-4-(aminomethyl) 5-chloro-9-ethyl-9-hydroxy-1,2,3,9,12,15-hexahydro-10 h,13 h-benzo[de]pyrano[3′,4′:6,7]indolizino[1,2-b]quinolin-10,13-dione]	–	–	IC50 in SW1990 cells, ratio to DXD [2]: 1.3305; IC50 in Colo-205 cells, ratio to DXD (Colo-205 (Colon) cells): 0.9857; IC50 in SW1573 cells, ratio to DXD (SW1573 (NSCLC) cells): 0.7619; IC50 in A549 cells, ratio to DXD (A549 (NSCLC) cells): 0.4500; IC50 in PANC-1 cells, ratio to DXD [3]: 0.6317; IC50 in H1437 cells, ratio to DXD (H1437 (NSCLC) cells): 1.1187; IC50 in H1650 cells, ratio to DXD (H1650 (NSCLC) cells): 0.8758; IC50 in H82 cells, ratio to DXD (H82 (SCLC) cells): 1.5585; IC50 in HT-29 cells, ratio to DXD (HT-29 (Colon) cells): 0.4909
CC[C@@]1(O)C(=O)OCc2c1cc1n(c2=O)Cc2c-1nc1cc(F)c(C)c3c1c2[C@@H](NC(=O)CO)CC3 [PY-X (DXD), exatecan DXD, reference compound]	1.0000	1.0000	Log D2.5 (Oct/buff) Result ([4]; 1-octanol / phosphate buffer pH 2.5): 1.68; Log D7.4 (Oct/buff) Result ([4]; 1-octanol / phosphate buffer pH 7.4): 1.67
(S)-9-ethyl-5-fluoro-9-hydroxy-1,2,3,9,12,15-hexahydro-10H,13H-benzo[de]pyrano[3′,4′: 6,7]indolizino[1,2-b]quinolin-10,13-dione [PY-10B]	0.1623	0.4362	–
CC[C@@]1(O)C(=O)OCc2c1cc1n(c2=O)Cc2c-1nc1cc(F)c(OC)c3c1c2[C@H](N)CC3 [PY-12B, (1R,9S)-1-amino-9-ethyl-5-fluoro-9-hydroxy-4-methoxy-1,2,3,9,12,15-hexahydro-10H,13H-benzo[de]pyrano[3′,4:6,7]indolizino[1,2-b]quinolin-10,13-dione]	5.3044	8.4257	–
